Reference: patent US6649760B2, “Substituted phenyluracils” (priority 2000, dated 2003)

Key:
[1] = log P determination by HPLC (reversed-phase C18), EEC Directive 79/831 Annex V.A8; type: physicochemical; conditions: reversed-phase C18 HPLC column; a) acidic range: 0.1% aqueous phosphoric acid, acetonitrile, linear gradient 10% to 90% acetonitrile; HPLC C18, 43° C.
Description: (a) Mobile phases for the determination in the acidic range: 0.1% aqueous phosphoric acid, acetonitrile; linear gradient from 10% acetonitrile to 90% acetonitrile—the corresponding test results in Table I are labelled a).
(b) Mobile phases for the determination in the neutral range: 0.01 molar aqueous phosphate buffer solution, acetonitrile; linear gradient from 10% acetonitrile to 90% acetonitrile—the corresponding test results in Table 1 are labelled b).

weeds [2] = experiment: Pre-emergence test (Example A); type: in vivo; conditions: soil sprayed 24 hours after sowing, rated after three weeks vs untreated control
Protocol: (§1) Solvent: 5 parts by weight of acetone
(§2) Emulsifier: 1 part by weight of alkylaryl polyglycol ether
(§3) To produce a suitable preparation of active compound, 1 part by weight of active compound is mixed with the stated amount of solvent, the stated amount of emulsifier is added and the concentrate is diluted with water to the desired concentration.
Seeds of the test plants are sown in normal soil. After 24 hours, the soil is sprayed with the preparation of active compound such that the particular amount of active compound desired is applied per unit area. The concentration of active compound in the spray liquor is chosen such that the particular amount of active compound desired is applied in 1000 liters of water per hectare.
After three weeks, the degree of damage to the plants is rated in % damage in comparison to the development of the untreated control. The figures denote:
(§4) 0%=no effect (like untreated control)

weeds [3] = experiment: Post-emergence test (Example B); type: in vivo; conditions: test plants of 5-15 cm sprayed, rated after three weeks vs untreated control
Protocol: as §1, §2, §3
Test plants of a height of 5-15 cm are sprayed with the preparation of active compound such that the particular amounts of active compound desired are applied per unit area. The concentration of the spray liquor is chosen such that the particular amounts of active compound desired are applied in 1000 l of water/ha.
After three weeks, the degree of damage to the plants is rated in % damage in comparison to the development of the untreated control.
as §4

Row | chromatographic logP [1] | Compound | activity against weeds (degree of damage to the plants) (weeds [2]) | activity against weeds (degree of damage to the plants) (weeds [3])
1 | 1.96 | O=c1cc(C(F)(F)F)[nH]c(=O)n1-c1cc(Oc2ncccn2)c(Br)cc1F [Example 1, 1-[4-bromo-2-fluoro-5-(pyrimidin-2-yl-oxy)-phenyl]-4-trifluoromethyl-3,6-dihydro-2,6-dioxo-1 (2H)-pyrimidine] | – | –
2 | 2.47 | Cn1c(C(F)(F)F)cc(=O)n(-c2cc(Oc3ncccn3)c(Br)cc2F)c1=O [Example 2, 1-[4-bromo-2-fluoro-5-(pyrimidin-2-yl-oxy)-phenyl]-3-methyl-4-trifluoromethyl-3 ,6-dihydro-2,6-dioxo-1 (2H)-pyrimidine] | very strong activity | very strong activity
